Laboratory results from ChEMBL document CHEMBL6177948, “Discovery of potential Leonurine-based therapeutic lead MJ210 attenuates Parkinson's disease pathogenesis via NF-κB and MAPK pathways: Mechanistic insights from in vitro and in vivo rotenone models” (Eur J Med Chem, 2025).
The source made the active and inactive calls.

Legend:
[1] = system: SH-SY5Y; experiment: Neuroprotective activity against rotenone-induced cytotoxicity in human SH-SY5Y cells assessed as increase in cell viability at 1 to 20 uM incubated for 24 hrs by MTT assay relative to control; type: functional; conditions: dose 1-20 µM
[2] = system: SH-SY5Y; experiment: Neuroprotective activity against rotenone-induced cytotoxicity in human SH-SY5Y cells assessed as increase in green fluorescence at 5 uM by Calcein-AM and PI staining based fluorescence microscopy analysis; type: functional, cell-based
[3] = system: SH-SY5Y; experiment: Anti-inflammatory activity in rotenone-induced human SH-SY5Y cells assessed as reduction in IL-6 expression by Western blotting analysis; type: functional, cell-based
[4] = system: SH-SY5Y; experiment: Reversal of rotenone-induced mitochondrial membrane depolarization in human SH-SY5Y cells assessed as increase in JC-10 aggregation by measuring red fluorescence at 5 uM preincubated with compound for 24 hrs followed by rotenone addition and measured after 24 hrs by JC-10 based fluorescence microscopic analysis; type: functional, cell-based
[5] = system: SH-SY5Y; experiment: Reversal of rotenone-induced mitochondrial membrane depolarization in human SH-SY5Y cells assessed as increase in aggregates to monomer ratio at 5 uM preincubated with compound for 24 hrs followed by rotenone addition and measured after 24 hrs by JC-10 based fluorescence microscopic analysis; type: functional, cell-based; conditions: time 48.0 hrs
[6] = system: SH-SY5Y; experiment: Neuroprotective activity against rotenone-induced mitochondrial ROS generation in human SH-SY5Y cells assessed as decrease in ROS level at 5 uM preincubated with compound for 24 hrs followed by rotenone addition and measured after 24 hrs by MitoSOX red staining based fluorescence microscopic analysis; type: functional, cell-based; conditions: time 48.0 hrs
[7] = system: SH-SY5Y; experiment: Neuroprotective activity against rotenone-induced mitochondrial ROS generation in human SH-SY5Y cells assessed as decrease in ROS level at 5 uM preincubated with compound for 24 hrs followed by rotenone addition and measured after 24 hrs by […] fluorescence microscopic analysis; type: functional, cell-based; conditions: time 48.0 hrs
[8] = system: SH-SY5Y; experiment: Neuroprotective activity against rotenone-induced mitochondrial morphological changes in human SH-SY5Y cells assessed as intact tubular at 5 uM preincubated with compound for 24 hrs followed by rotenone addition and measured after 24 hrs by Mito Tracker staining based fluorescence microscopic analysis; type: functional, cell-based; conditions: time 48.0 hrs
[9] = target: Transcription factor p65 (Homo sapiens) (UniProt Q04206); experiment: Inhibition of rotenone-induced NFkappaB p65 translocation from cytosol to nucleus in human SH-SY5Y cells pretreated with compound followed by rotenone addition by DAPI staining based immunocytochemistry analysis; type: cell-based
Sequence of Transcription factor p65 (Homo sapiens) (Q04206 whole entry): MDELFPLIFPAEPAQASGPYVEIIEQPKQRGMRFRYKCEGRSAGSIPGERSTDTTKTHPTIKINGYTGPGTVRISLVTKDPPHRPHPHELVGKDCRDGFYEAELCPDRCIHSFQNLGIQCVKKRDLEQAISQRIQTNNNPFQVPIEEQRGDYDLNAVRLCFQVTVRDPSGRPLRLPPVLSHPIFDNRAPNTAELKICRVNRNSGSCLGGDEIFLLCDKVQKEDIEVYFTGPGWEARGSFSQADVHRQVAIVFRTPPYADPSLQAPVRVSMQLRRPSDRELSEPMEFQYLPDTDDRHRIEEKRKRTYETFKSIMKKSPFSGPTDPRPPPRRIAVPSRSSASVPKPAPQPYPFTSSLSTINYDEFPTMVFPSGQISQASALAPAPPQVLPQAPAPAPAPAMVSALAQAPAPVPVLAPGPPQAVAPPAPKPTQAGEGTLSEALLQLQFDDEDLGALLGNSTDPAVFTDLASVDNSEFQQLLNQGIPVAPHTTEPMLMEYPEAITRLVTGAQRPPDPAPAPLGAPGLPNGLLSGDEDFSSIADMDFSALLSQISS

[10] = system: SH-SY5Y; experiment: Anti-inflammatory activity against rotenone-induced human SH-SY5Y cells assessed as reduction in TNF-alpha mRNA expression level by RT-qPCR analysis; type: functional, cell-based
[11] = system: SH-SY5Y; experiment: Anti-inflammatory activity against rotenone-induced human SH-SY5Y cells assessed as reduction in IL-1beta mRNA expression level by RT-qPCR analysis; type: functional, cell-based
[12] = system: SH-SY5Y; experiment: Inhibition of MAPK signaling pathway in rotenone-induced human SH-SY5Y cells assessed as reduction in ERK1/2 phosphorylation level by ELISA; type: cell-based
[13] = Stability in human serum assessed as compound remaining measured after 96 hrs by RP-HPLC analysis relative to control; type: ADME, cell-free; conditions: read-out: Stability
[14] = system: Rattus norvegicus; experiment: Anti-parkinson activity in rotenone-induced male Wistar rat model assessed as increase TH expression in striatum at 5 mg/kg, ip pretreated with compound every alternative days followed by rotenone addition and measured after 42 days by Western blotting analysis; type: functional, organism-based; conditions: time 42.0 day
[15] = system: Rattus norvegicus; experiment: Improvement of motor dysfunction in rotenone-induced male Wistar rat model assessed as reduction in number of falls at 5 mg/kg, ip pretreated with compound every alternative days followed by rotenone addition and measured after 42 days by rotarod test; type: functional, organism-based; conditions: time 42.0 day
[16] = system: Rattus norvegicus; experiment: Anti-parkinson activity in rotenone-induced male Wistar rat model assessed as increase in cage lid hold time at 5 mg/kg, ip pretreated with compound every alternative days followed by rotenone addition and measured after 42 days by inverted grid test; type: functional, organism-based; conditions: time 42.0 day
[17] = system: Rattus norvegicus; experiment: Anti-parkinson activity in rotenone-induced neurodegeneration in male Wistar rat model assessed as minimal neuronal loss in striatum at 5 mg/kg, ip pretreated with compound every alternative days followed by rotenone addition and measured after 42 days by H and E staining based analysis; type: functional, organism-based; conditions: time 42.0 day
[18] = system: Rattus norvegicus; experiment: Anti-parkinson activity in rotenone-induced neurodegeneration in male Wistar rat model assessed as decrease neuronal damage in striatum at 5 mg/kg, ip pretreated with compound every alternative days followed by rotenone addition and measured after 42 days by Nissl staining based analysis; type: functional, organism-based; conditions: time 42.0 day
[19] = system: Rattus norvegicus; experiment: Anti-parkinson activity in rotenone-induced neurodegeneration in male Wistar rat model assessed as reduction in pyknotic neurons in striatum at 5 mg/kg, ip pretreated with compound every alternative days followed by rotenone addition and measured after 42 days by Nissl staining based analysis; type: functional, organism-based; conditions: time 42.0 day
[20] = system: Rattus norvegicus; experiment: Anti-parkinson activity in rotenone-induced neurodegeneration in male Wistar rat model assessed as reduction in necrosis in cortex at 5 mg/kg, ip pretreated with compound every alternative days followed by rotenone addition and measured after 42 days by Nissl staining based analysis; type: functional, organism-based; conditions: time 42.0 day
[21] = system: Rattus norvegicus; experiment: Anti-parkinson activity in rotenone-induced neurodegeneration in male Wistar rat model assessed as reduction in necrosis in substantia nigra at 5 mg/kg, ip pretreated with compound every alternative days followed by rotenone addition and measured after 42 days by Nissl staining based analysis; type: functional, organism-based; conditions: time 42.0 day
[22] = system: Rattus norvegicus; experiment: Anti-parkinson activity in rotenone-induced male Wistar rat assessed as increase in TH positive fiber density in […] at 5 mg/kg, ip pretreated with compound every alternative days followed by rotenone addition and measured after 42 days by immunofluorescence staining based analysis; type: functional, organism-based; conditions: time 42.0 day
[23] = system: Rattus norvegicus; experiment: In vivo inhibition of MAPK signaling pathway in rotenone-induced parkinson disease male Wistar rat model assessed as reduction in JNK phosphorylation level in striatum at 5 mg/kg, ip pretreated with compound every alternative days followed by rotenone addition and measured after 42 days by Western blotting analysis; type: functional, organism-based; conditions: time 42.0 day
[24] = system: Rattus norvegicus; experiment: Anti-inflammatory activity in rotenone-induced male Wistar rat model assessed as reduction in IL-1beta expression level in substantia nigra at 5 mg/kg, ip pretreated with compound every alternative days followed by rotenone addition and measured after 42 days by ELISA; type: functional, organism-based; conditions: time 42.0 day
[25] = Toxicity in male Wistar rat assessed as change in cellular structure of spleen at 1 to 10 mg/kg by H and E staining based analysis; type: organism-based; conditions: in vivo, dose 1-10 mg/kg
[26] = Toxicity in male Wistar rat assessed as change in heart morphology at 1 to 10 mg/kg by H and E staining based analysis; type: organism-based; conditions: in vivo, dose 1-10 mg/kg
[27] = Drug uptake in male Wistar rat brain at 5 mg/kg, ip measured after 6 hrs by HPLC analysis; type: ADME, organism-based; conditions: in vivo
[28] = system: SH-SY5Y; experiment: Neuroprotective activity against rotenone-induced cytotoxicity in human SH-SY5Y cells assessed as increase in number of live cells by measuring mean fluorescence intensity; type: functional, cell-based

COc1cc(CCC(=O)N2CCCCC2)cc(OC)c1OC(=O)c1ccccn1
Non-toxic: Activity [25] | Activity [26]
active: Activity [2] | Activity [3] | Activity [4] | Activity [5] | Activity [6] | Activity [7] | Activity [8] | inhibition [9] | Activity [10] | Activity [11] | inhibition [12] | Activity [14] | Activity [15] | Activity [16] | Activity [17] | Activity [18] | Activity [19] | Activity [20] | Activity [21] | Activity [22] | inhibition [23] | Activity [24] | Activity [28]
Active: Drug uptake [27]
86%: remaining at 96 h [13]
81.9%: Activity [1]
